Measurements as given in patent publication US20110288042A1, “STABLE HIGHLY PURE AZACITIDINE AND PREPARATION METHODS THEREFOR” (CHEMAGIS LTD., priority 2007, published 2011).
Read-outs that look alike come from different tables or passages of the source.

Key:
[1] = Solution stability of 5-azacytidine in the HPLC diluent; assay type: physicochemical; conditions: for Total impurities by % area / Area (%) at RRT 1.00 (5-azacytidine) / Area (%) of peak at RRT 0.63 / Area (%) of peak at RRT 2.01 / Area (%) of peak at RRT 2.05: HPLC diluent, about 1.65 mg/ml
Description: (§1) The HPLC measurements were performed using a system equipped with an Inertsil C18 column (ODS-2, 5 microns, 250×4.6 mm (ODS-167)). Other parameters of the system were as follows: • Detection: UV detector operated on 242 nm • Column temperature: 20° C. • Run time: 45 minutes • Injection volume: 10 μl • Flow rate: 1.0 ml/minute • Sample set temperature: 5° C. • Sample concentration: about 1.65 mg/ml • Diluent: Mixture of 30% 10 mM ammonium acetate and 70% THF
(§2) Analyses were performed using the following mobile phase • Mobile Phase (Eluent) A: 10 mM ammonium acetate • Mobile Phase (Eluent) B: 60% 10 mM ammonium acetate, 40% MeOH

[2] = Solution stability of 5-azacytidine in water; assay type: physicochemical; conditions: for Area (%) at RRT 1.00 (5-azacytidine) / Area (%) of peak at RRT 0.63 / Area (%) of peak at RRT 2.01 / Total impurities by % area / Area (%) of peak at RRT 1.70: water, about 1.65 mg/ml
Description: as §1, §2
Samples were withdrawn from the flask every consecutive hour and injected to the HPLC system.

[3] = cited from earlier work

Nc1ncn([C@@H]2O[C@H](CO)[C@@H](O)[C@H]2O)c(=O)n1 [5-azacytidine, 4-amino-1-β-D-ribofuranosyl-1,3,5-s-triazine-2(1H)-one]
Total impurities by % area ([1]; 7 hours): 4.15% | Area (%) at RRT 1.00 (5-azacytidine) ([1]; 8 hours): 95.74% | Area (%) of peak at RRT 0.63 ([1]; 8 hours): 2.55% | Area (%) of peak at RRT 2.01 ([1]; 8 hours): 1.37% | Area (%) of peak at RRT 2.05 ([1]; 8 hours): 0.24% | Total impurities by % area ([1]; 8 hours): 4.26% | Area (%) at RRT 1.00 (5-azacytidine) ([1]; 9 hours): 95.63% | Area (%) of peak at RRT 0.63 ([1]; 9 hours): 2.66% | Area (%) of peak at RRT 2.01 ([1]; 9 hours): 1.37% | Area (%) of peak at RRT 2.05 ([1]; 9 hours): 0.24% | Total impurities by % area ([1]; 9 hours): 4.37% | Area (%) at RRT 1.00 (5-azacytidine) ([1]; 10 hours): 95.50% | Area (%) of peak at RRT 0.63 ([1]; 10 hours): 2.77% | Area (%) of peak at RRT 2.01 ([1]; 10 hours): 1.37% | Area (%) of peak at RRT 2.05 ([1]; 10 hours): 0.24% | Total impurities by % area ([1]; 10 hours): 4.50% | Area (%) at RRT 1.00 (5-azacytidine) ([1]; 11 hours): 95.40% | Area (%) of peak at RRT 0.63 ([1]; 11 hours): 2.87% | Area (%) of peak at RRT 2.01 ([1]; 11 hours): 1.37% | Area (%) of peak at RRT 2.05 ([1]; 11 hours): 0.24% | Total impurities by % area ([1]; 11 hours): 4.60% | Solution stability in HPLC diluent ([1]; dissolved in the HPLC diluent): stable within the average time period needed to complete the HPLC method | Solution stability in water ([2]; in water): unstable in water over prolonged time periods | Area (%) at RRT 1.00 (5-azacytidine) ([2]; 0 hours): 97.47% | Area (%) of peak at RRT 0.63 ([2]; 0 hours): 0.64% | Area (%) of peak at RRT 2.01 ([2]; 0 hours): 1.59% | Total impurities by % area ([2]; 0 hours): 2.53% | Area (%) at RRT 1.00 (5-azacytidine) ([2]; 1 hour): 95.97% | Area (%) of peak at RRT 0.63 ([2]; 1 hour): 2.16% | Area (%) of peak at RRT 2.01 ([2]; 1 hour): 1.57% | Total impurities by % area ([2]; 1 hour): 4.03% | Area (%) at RRT 1.00 (5-azacytidine) ([2]; 4 hours): 91.38% | Area (%) of peak at RRT 0.63 ([2]; 4 hours): 6.86% | Area (%) of peak at RRT 2.01 ([2]; 4 hours): 1.46% | Total impurities by % area ([2]; 4 hours): 8.62% | Area (%) at RRT 1.00 (5-azacytidine) ([2]; 8 hours): 83.61% | Area (%) of peak at RRT 0.63 ([2]; 8 hours): 14.68% | Area (%) of peak at RRT 1.70 ([2]; 8 hours): 0.23% | Area (%) of peak at RRT 2.01 ([2]; 8 hours): 1.36% | Total impurities by % area ([2]; 8 hours): 16.39% | Area (%) at RRT 1.00 (5-azacytidine) ([2]; 12 hours): 77.01% | Area (%) of peak at RRT 0.63 ([2]; 12 hours): 21.28% | Area (%) of peak at RRT 1.70 ([2]; 12 hours): 0.35% | Area (%) of peak at RRT 2.01 ([2]; 12 hours): 1.25% | Total impurities by % area ([2]; 12 hours): 22.99% | Solubility ([3]; in 5% Tween 80 in water): sparingly soluble | Solubility ([3]; in 5% dextrose in water): sparingly soluble | Solubility ([3]; in N-methyl-2-pyrrolidone): sparingly soluble | Solubility ([3]; in acetone): insoluble | Solubility ([3]; in dimethylsulfoxide (DMSO)): soluble | Solubility ([3]; in ethanol/water (50/50)): slightly soluble | Solubility ([3]; in ethanol): insoluble | Solubility ([3]; in methyl ethyl ketone): insoluble | Solubility ([3]; in normal saline): sparingly soluble | Solubility ([3]; in polyethylene glycol): slightly soluble | Solubility ([3]; in propylene glycol): slightly soluble | Solubility ([3]; in water saturated octanol): sparingly soluble | Solubility ([3]; in water): sparingly soluble
